Tests used:
Assay in all cases: concentration in plasma after dosing
Rat [1] = details: 12 h; dosed: Emodin; 80 mg/kg; oral; Male; F344/N
Rat [2] = details: 6 h; dosed: Emodin; 80 mg/kg; oral; Female; F344/N
Rat [3] = details: 9 h; dosed: Emodin; 80 mg/kg; oral; Female; F344/N
Rat [4] = details: dosed: Emodin, 5 mg/kg, iv, Female, F344/N
Rat [5] = details: 40 min; dosed: Emodin; 5 mg/kg; iv; Female; F344/N
Rat [6] = details: 10 min; dosed: Emodin; 5 mg/kg; iv; Female; F344/N
Rat [7] = details: 20 min; dosed: Emodin; 5 mg/kg; iv; Female; F344/N
Rat [8] = details: dosed: Emodin, F344/N
Rat [9] = details: dosed: Emodin, 5 mg/kg, iv, Female, F344/N; remark: listed apart in the source
Rat [10] = details: 40 min; dosed: Emodin; 5 mg/kg; iv; Male; F344/N
Rat [11] = details: 9 h; dosed: Emodin; 80 mg/kg; oral; Female; F344/N; remark: listed apart in the source
Rat [12] = details: 9 h; dosed: Emodin; 80 mg/kg; oral; Male; F344/N
Rat [13] = details: dosed: Emodin, 80 mg/kg, oral, Female, F344/N
Rat [14] = details: 40 min; dosed: Emodin; 5 mg/kg; iv; Female; F344/N; remark: listed apart in the source
Rat [15] = details: 20 min; dosed: Emodin; 5 mg/kg; iv; Male; F344/N
Rat [16] = details: dosed: Emodin, 5 mg/kg, iv, Male, F344/N
Rat [17] = details: 5 min; dosed: Emodin; 5 mg/kg; iv; Male; F344/N
Rat [18] = details: 20 min; dosed: Emodin; 5 mg/kg; iv; Male; F344/N; remark: listed apart in the source
Rat [19] = details: 6 h; dosed: Emodin; 80 mg/kg; oral; Male; F344/N
Rat [20] = details: 20 min; dosed: Emodin; 5 mg/kg; iv; Female; F344/N; remark: listed apart in the source
Rat [21] = details: dosed: Emodin, 5 mg/kg, iv, Male, F344/N; remark: listed apart in the source
Rat [22] = details: 40 min; dosed: Emodin; 5 mg/kg; iv; Male; F344/N; remark: listed apart in the source
Rat [23] = details: 9 h; dosed: Emodin; 80 mg/kg; oral; Male; F344/N; remark: listed apart in the source
Rat [24] = details: 10 min; dosed: Emodin; 5 mg/kg; iv; Male; F344/N
Rat [25] = details: dosed: Emodin, 5 mg/kg, iv, Female, F344/N; remark: listed apart in the source
Rat [26] = details: 10 min; dosed: Emodin; 5 mg/kg; iv; Female; F344/N; remark: listed apart in the source
Rat [27] = details: 6 h; dosed: Emodin; 80 mg/kg; oral; Female; F344/N; remark: listed apart in the source
Rat [28] = details: 10 min; dosed: Emodin; 5 mg/kg; iv; Male; F344/N; remark: listed apart in the source
Rat [29] = details: 5 min; dosed: Emodin; 5 mg/kg; iv; Male; F344/N; remark: listed apart in the source
Rat [30] = details: dosed: Emodin, 80 mg/kg, oral, Female, F344/N; remark: listed apart in the source
Rat [31] = details: dosed: Emodin, 5 mg/kg, iv, Female, F344/N; remark: listed apart in the source

Cc1cc(O)c2c(c1)C(=O)c1cc(O)cc(O)c1C2=O [Emodin]
Details | concentration in plasma [ng/mL]
Rat [1] | 110
Rat [2] | 165
Rat [3] | 198
Rat [5] | 928
Rat [6] | 2260
Rat [7] | 794
Rat [10] | 1700
Rat [11] | 232
Rat [12] | 153
Rat [14] | 963
Rat [15] | 4360
Rat [17] | 8390
Rat [18] | 5930
Rat [19] | 108
Rat [20] | 1190
Rat [22] | 2200
Rat [23] | 155
Rat [24] | 6180
Rat [26] | 3010
Rat [27] | 151
Rat [28] | 7370
Rat [29] | 8480

Details | concentration in plasma [ng/mL]
Rat [4], 1 h | 163
Rat [4], 2 min | 5990
Rat [9], 1.5 h | 151
Rat [9], 5 min | 5160
Rat [13], 3 h | 255
Rat [13], 12 h | 184
Rat [16], 1 h | 229
Rat [16], 2 min | 10500
Rat [21], 1 h | 219
Rat [21], 2 min | 8580
Rat [25], 1.5 h | 128
Rat [25], 5 min | 4780
Rat [30], 3 h | 136
Rat [30], 12 h | 175
Rat [31], 1 h | 158
Rat [31], 2 min | 6490

concentration in plasma [ng/mL], Rat [8]
Details | Female | Male
1 h, 5 mg/kg, iv | 256 | 205
1.5 h, 5 mg/kg, iv | 119 | –
1.5 h, 80 mg/kg, oral | 136 | –
2 min, 5 mg/kg, iv | 4970 | 8380
3 h, 80 mg/kg, oral | 115 | –
5 min, 5 mg/kg, iv | 3040 | 7820
6 h, 40 mg/kg, oral | 114 | –
6 h, 80 mg/kg, oral | 143 | 159
8 h, 40 mg/kg, oral | 111 | –
9 h, 80 mg/kg, oral | 269 | 126
10 min, 5 mg/kg, iv | 1650 | 4660
12 h, 80 mg/kg, oral | 167 | 116
20 min, 5 mg/kg, iv | 2400 | 4970
40 min, 5 mg/kg, iv | 740 | 1980

From EPA's CvTdb concentration-time database
